Laboratory results as given in patent publication US20260242394A1, “USP2 INHIBITORS AND METHODS OF USING THE SAME FOR THE TREATMENT OF DISEASES” (ICAHN SCHOOL OF MEDICINE AT MOUNT SINAI, priority 2023, published 2026).

Test system: ACE2-dependent pseudotypes
Assay type: cell-based

Cc1ccc(S(=O)(=O)Nc2ccc(C(F)(F)F)cc2C(=O)Nc2nc(-c3ccc(Br)cc3)cs2)cc1 [XH161-102 (MS102), N-(4-(4-bromophenyl)thiazol-2-yl)-2-((4-methylphenyl)sulfonamido)-5-(trifluoromethyl)benzamide]
activity in preventing cell entry of ACE2-dependent pseudotypes: enhanced activity
